These are literature values, as cited in patent US20230047788A1, “COMPOSITIONS COMPRISING 5-CHOLESTEN-3, 25-DIOL, 3-SULFATE (25HC3S) OR PHARMACEUTICALLY ACCEPTABLE SALT THEREOF AND AT LEAST ONE CYCLIC OLIGOSACCHARIDE” (Virginia Commonwealth University, priority 2016, published 2023).

Molecules are shown by their SMILES.

For this data set the following is noted: at 25°C; cited from earlier work.

For `CC(O)COC[C@H]1O[C@@H]2O[C@H]3[C@H](O)[C@@H](O)[C@@H](O[C@H]4[C@H](O)[C@@H](O)[C@@H](O[C@H]5[C@H](O)[C@@H](O)[C@@H](O[C@H]6[C@H](O)[C@@H](O)[C@@H](O[C@H]7[C@H](O)[C@@H](O)[C@@H](O[C@H]8[C@H](O)[C@@H](O)[C@@H](O[C@H]1[C@H](O)[C@H]2O)O[C@@H]8COCC(C)O)O[C@@H]7COCC(C)O)O[C@@H]6COCC(C)O)O[C@@H]5COCC(C)O)O[C@@H]4COCC(C)O)O[C@@H]3COCC(C)O` (stereo partly drawn) [HP-β-CD, hydroxypropyl β-cyclodextrin], the solubility in water was 50 % w/v.
